Earlier results, collected in US20050228335A1, “Physical, structural, mechanical, electrical and electromechanical features for use in association with electrically assisted delivery devices and systems” (priority 2004, published 2005).

Settings: iontophoresis in vitro across human skin

Cumulative delivery compared with lidocaine | Structure (SMILES)
slightly greater delivery | CCCN(CC)C(CC)C(=O)Nc1c(C)cccc1C (centres unmarked) [etidocaine]
slightly greater delivery | CCN(CC)CCOC(=O)c1ccc(N)cc1 [procaine]
